Measured values reported in US20240218019A1, “METHODS AND COMPOSITIONS COMPRISING MHC CLASS I PEPTIDES” (BOARD OF REGENTS, THE UNIVERSITY OF TEXAS SYSTEM, priority 2021, published 2024).

Experiments:
[1] = LS patients, long-term exposure; cited from earlier work
[2] = test system: PBMCs from LS Rhesus macaques; assay: IFNγ ELISpot assay with PBMCs from LS Rhesus macaques; format: cell-based; details: stimulated 48 h (FIG. 22B)
Protocol: FIG. 22A-B. Validation of the predicted neoAg in LS Rhesus macaques. A) Immunogenicity of neoAg peptide pools and deconvoluted neoAg with ELISpot assay. PBMCs from LS Rhesus macaques (n=4) were stimulated with […] and 12 individual peptides from the pools, concavalin A (+ve control), and DMSO (−ve control) for 48 h. B) ELISpot images. […] Spot forming Units for IFNγ secretion were analyzed and quantitated by ELISpot plate reader.
Since the ultimate goal is to develop a universal LS-cancer vaccine. the inventors then tested the immunogenicity of the ELISpot-reactive peptides in PBMCs from LS Rhesus macaques who carry a pathogenic mutation in the MLH1 gene with pathology similar to human LS. These animals. housed at MD Anderson Cancer Center, spontaneously develop CRC and serve as an ideal preclinical LS model for immune-interception strategies with neoAg vaccines. PBMCs from four different LS Rhesus were stimulated with four peptide pools and 12 individual peptides for ELISpot assays as indicated in FIG. 22A.

| Compound | resident immune cells within the mucosal tissue of the colon [1] | immunogenicity of deconvoluted peptides in stimulated rhesus PBMC (ELISpot) [2] |
| --- | --- | --- |
| COc1ccc2cc([C@H](C)C(=O)O)ccc2c1 [naproxen] | increase of resident immune cells within the mucosal tissue of the colon |  |
| CELSR2: deconvoluted neoAg peptide from CELSR2, tested in LS Rhesus PBMCs (RLDKGNFAGA) |  | except PLOD1 and CELSR2 were determined immunogenic |
